From patent US9758527B2, “Cyclohexene derivative, preparation method therefor, and pharmaceutical composition for preventing or treating metabolic diseases, containing same as active ingredient” (HYUNDAI PHARM CO., LTD., priority 2014, dated 2017)
Read-outs that look alike come from different tables or passages of the source.

Molecular target: T1, G protein-coupled receptor 119 (GPR-119) (Mesocricetus auratus, UniProt A0A1U8CD06)
T1 construct: hamster-derived β-cells containing G protein-coupled receptor 119 (GPR-119), HIT-T15 cells; host or cells: HIT-T15 (hamster pancreatic β-cells)
T1 sequence (A0A1U8CD06 1-334): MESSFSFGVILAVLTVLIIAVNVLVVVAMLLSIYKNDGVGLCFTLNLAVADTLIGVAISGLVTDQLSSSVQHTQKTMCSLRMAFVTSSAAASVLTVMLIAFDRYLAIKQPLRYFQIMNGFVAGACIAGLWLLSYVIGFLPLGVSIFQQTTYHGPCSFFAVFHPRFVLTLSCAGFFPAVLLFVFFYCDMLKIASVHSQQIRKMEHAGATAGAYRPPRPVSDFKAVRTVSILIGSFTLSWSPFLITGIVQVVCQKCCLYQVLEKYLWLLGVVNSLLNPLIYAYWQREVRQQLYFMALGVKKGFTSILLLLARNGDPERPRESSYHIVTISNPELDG
Test: Evaluation of cAMP activity in HIT-T15 cells (HTRF cAMP dynamic kit)
Type: cell-based, hamster
Details: cAMP activation
Protocol: To check whether the cyclohexene derivatives according to the present invention activate cyclic adenosine monophosphate (cAMP), experiments were carried out, as follows.
The HIT-T15 cells were plated on a 96-well plate at 60,000 cells per well. On the next day of plating, the cells were treated with a varying concentration of each of the example compounds according to the present invention, and incubated at 37° C. for an hour. In this case, each of the treated compounds was used at six concentrations, ranging from […], to treat the cells.
The cyclic adenosine monophosphate (cAMP) activity was measured according to the manufacturer's instruction using a cAMP dynamic kit commercially available from Cis Bio Inc. (Bedford, Mass.). The cells were lysed, and a level of cAMP was determined by a competitive immunoassay using D2-labeled cAMP and a cryptate-labeled anti-cAMP antibody. Fluorescence was read in Flex Station (Molecular Devices). […] Unlabeled cAMP in the cell lysate competed with the D2-labeled cAMP against the cryptate-labeled antibody. Since a decrease in the measured intensity of the FRET signals represents a level of cAMP in the cells, the cAMP activities of the compounds are calculated as a change in FRET signals by adjusting an amount of dimethyl sulfoxide (DMSO).

[1] = 1 h at 37° C., six concentrations, read-out: EC50

Compound | EC50 [1] [nM] | EC50 (read-out: EC50 value) [nM]
CCc1cnc(N2CCC(COc3ccc(C4=CCC(C(=O)N5CCN(C6CC6)CC5)CC4)cc3)CC2)nc1 (centres unmarked) [Example 123, (4-cyclopropylpiperazin-1-yl)(4-(4-((1-(5-ethylpyrimidin-2-yl)piperidin-4-yl)methoxy)phenyl)cyclohex-3-enyl)methanone] | 35 | ≤ 50
CC(C)(CO)CNC(=O)C1CC=C(c2ccc(OCC3CCN(C(=O)OC(C)(C)C)CC3)c(F)c2)CC1 (centres unmarked) [Example 82, tert-butyl 4-((2-fluoro-4-(4-(3-hydroxy-2,2-dimethylpropylcarbamoyl)cyclohex-1-enyl)phenoxy)methyl)piperidine-1-carboxylate] | 9 | ≤ 50
C[C@@H](O)CNC(=O)C1CC=C(c2ccc(OCC3CCN(C(=O)OC(C)(C)C)CC3)c(F)c2)CC1 (stereo partly drawn) [Example 62, tert-butyl 4-((2-fluoro-4-(4-((R)-2-hydroxypropylcarbamoyl)cyclohex-1-enyl)phenoxy)methyl)piperidine-1-carboxylate] | 70 | 
CC(C)(C)OC(=O)N1CCC(COc2ccc(C3=CCC(C(=O)N4CCSCC4)CC3)cc2F)CC1 (centres unmarked) [Example 71, tert-butyl 4-((2-fluoro-4-(4-(thiomorpholine-4-carbonyl)cyclohex-1-enyl)phenoxy)methyl)piperidine-1-carboxylate] | 5.4 | ≤ 50
CON=C1CCN(C(=O)C2CC=C(c3ccc(OCC4CCN(C(=O)OC(C)(C)C)CC4)cc3)CC2)CC1 (centres unmarked) [Example 270, tert-butyl 4-((4-(4-(4-(methoxyimino)piperidine-1-carbonyl)cyclohex-1-enyl)phenoxy)methyl)piperidine-1-carboxylate] | 12 | 
CC(C)(C)OC(=O)N1CCC(COc2ccc(C3=CCC(C(=O)NC[C@H](O)CO)CC3)c(F)c2)CC1 (stereo partly drawn) [Example 132, tert-butyl 4-((4-(4-((S)-2,3-dihydroxypropylcarbamoyl)cyclohex-1-enyl)-3-fluorophenoxy)methyl)piperidine-1-carboxylate] | 210 | 
C[C@@H](CO)NC(=O)C1CC=C(c2ccc(OCC3CCN(C(=O)OC(C)(C)C)CC3)nc2)CC1 (stereo partly drawn) [Example 24, tert-butyl 4-((5-(4-((S)-1-hydroxypropan-2-ylcarbamoyl)cyclohex-1-enyl)pyridin-2-yloxy)methyl)piperidine-1-carboxylate] | 260 | 
CC(C)(C)OC(=O)N1CCC(COc2ccc(C3=CCC(C(=O)N4CCSCC4)CC3)cn2)CC1 (centres unmarked) [Example 72, tert-butyl 4-((5-(4-(thiomorpholine-4-carbonyl)cyclohex-1-enyl)pyridin-2-yloxy)methyl)piperidine-1-carboxylate] | 25 | ≤ 50
CCc1cnc(N2CCC(COc3ccc(C4=CCC(C(=O)N5CCC(N6CCOCC6)CC5)CC4)cc3)CC2)nc1 (centres unmarked) [Example 220, (4-(4-((1-(5-ethylpyrimidin-2-yl)piperidin-4-yl)methoxy)phenyl)cyclohex-3-enyl)(4-morpholinopiperidin-1-yl)methanone] | 40 | ≤ 50
CC(C)(C)OC(=O)N1CCC(COc2ccc(C3=CCC(C(=O)NC4CC4)CC3)c(F)c2)CC1 (centres unmarked) [Example 137, tert-butyl 4-((4-(4-(cyclopropylcarbamoyl)cyclohex-1-enyl)-3-fluorophenoxy)methyl)piperidine-1-carboxylate] | 60 | 
CC(C)(C)OC(=O)N1CCC(COc2ccc(C3=CCC(C(=O)NC[C@@H](O)CO)CC3)c(F)c2)CC1 (stereo partly drawn) [Example 131, tert-butyl 4-((4-(4-((R)-2,3-dihydroxypropylcarbamoyl)cyclohex-1-enyl)-3-fluorophenoxy)methyl)piperidine-1-carboxylate] | 150 | 

Next, values leading:

EC50 [1] [nM] | EC50 (read-out: EC50 value) [nM] | Compound
170 |  | CC(C)c1noc(N2CCC(COc3ccc(C4=CCC(C(=O)N[C@H](C)CO)CC4)nc3)CC2)n1 (stereo partly drawn) [Example 36, N-((R)-1-hydroxypropan-2-yl)-4-(5-((1-(3-isopropyl-1,2,4-oxadiazol-5-yl)piperidin-4-yl)methoxy)pyridin-2-yl)cyclohex-3-enecarboxamide]
13 | ≤ 50 | CCc1cnc(N2CCC(COc3ccc(C4=CCC(C(=O)N5CC[C@@H](O)C5)CC4)cc3)CC2)nc1 (stereo partly drawn) [Example 16, (4-(4-((1-(5-ethylpyrimidin-2-yl)piperidin-4-yl)methoxy)phenyl)cyclohex-3-enyl)((R)-3-hydroxypyrrolidin-1-yl)methanone]
21 | ≤ 50 | CC(C)c1noc(N2CCC(COc3ccc(C4=CCC(C(=O)N(C)CCO)CC4)cc3)CC2)n1 (centres unmarked) [Example 34, N-(2-hydroxyethyl)-4-(4-((1-(3-isopropyl-1,2,4-oxadiazol-5-yl)piperidin-4-yl)methoxy)phenyl)-N-methylcyclohex-3-enecarboxamide]
160 |  | CC(C)c1noc(N2CCC(COc3ccc(C4=CCC(C(=O)NC(CO)CO)CC4)cc3)CC2)n1 (centres unmarked) [Example 23, N-(1,3-dihydroxypropan-2-yl)-4-(4-((1-(3-isopropyl-1,2,4-oxadiazol-5-yl)piperidin-4-yl)methoxy)phenyl)cyclohex-3-enecarboxamide]
80 |  | CC(C)c1noc(N2CCC(COc3ccc(C4=CCC(C(=O)NCCO)CC4)cc3F)CC2)n1 (centres unmarked) [Example 120, 4-(3-fluoro-4-((1-(3-isopropyl-1,2,4-oxadiazol-5-yl)piperidin-4-yl)methoxy)phenyl)-N-(2-hydroxyethyl)cyclohex-3-enecarboxamide]
13 | ≤ 50 | CCc1cnc(N2CCC(COc3ccc(C4=CCC(C(=O)N5CCOCC5)CC4)cc3)CC2)nc1 (centres unmarked) [Example 13, (4-(4-((1-(5-ethylpyrimidin-2-yl)piperidin-4-yl)methoxy)phenyl)cyclohex-3-enyl)(morpholino)methanone]
500 |  | CC(C)c1noc(N2CCC(COc3ccc(C4=CCC(C(=O)NC[C@@H](O)CO)CC4)nc3)CC2)n1 (stereo partly drawn) [Example 40, N-((R)-2,3-dihydroxypropyl)-4-(5-((1-(3-isopropyl-1,2,4-oxadiazol-5-yl)piperidin-4-yl)methoxy)pyridin-2-yl)cyclohex-3-enecarboxamide]
38 |  | CCc1cnc(N2CCC(COc3ccc(C4=CCC(C(=O)NCC(C)(C)CO)CC4)cc3)CC2)nc1 (centres unmarked) [Example 177, 4-(4-((1-(5-ethylpyrimidin-2-yl)piperidin-4-yl)methoxy)phenyl)-N-(3-hydroxy-2,2-dimethylpropyl)cyclohex-3-enecarboxamide]
10 | ≤ 50 | CCc1cnc(N2CCC(COc3ccc(C4=CCC(C(=O)N5CCC(F)(F)C5)CC4)cc3)CC2)nc1 (centres unmarked) [Example 258, (3,3-difluoropyrrolidin-1-yl)(4-(4-((1-(5-ethylpyrimidin-2-yl)piperidin-4-yl)methoxy)phenyl)cyclohex-3-enyl)methanone]
24 |  | CCc1cnc(N2CCC(COc3ccc(C4=CCC(C(=O)N5CC=CC5)CC4)cc3)CC2)nc1 (centres unmarked) [Example 235, (2,5-dihydro-1H-pyrrol-1-yl)(4-(4-((1-(5-ethylpyrimidin-2-yl)piperidin-4-yl)methoxy)phenyl)cyclohex-3-enyl)methanone]
22 | ≤ 50 | CCN(CCO)C(=O)C1CC=C(c2ccc(OCC3CCN(c4nc(C(C)C)no4)CC3)cc2)CC1 (centres unmarked) [Example 35, N-ethyl-N-(2-hydroxyethyl)-4-(4-((1-(3-isopropyl-1,2,4-oxadiazol-5-yl)piperidin-4-yl)methoxy)phenyl)cyclohex-3-enecarboxamide]
7 | ≤ 50 | CCc1cnc(N2CCC(COc3ccc(C4=CCC(C(=O)N5CCC(CO)CC5)CC4)cc3)CC2)nc1 (centres unmarked) [Example 165, (4-(4-((1-(5-ethylpyrimidin-2-yl)piperidin-4-yl)methoxy)phenyl)cyclohex-3-enyl)(4-(hydroxymethyl)piperidin-1-yl)methanone]
24 | ≤ 50 | CCc1cnc(N2CCC(COc3ccc(C4=CCC(C(=O)N(CCO)CCO)CC4)cc3)CC2)nc1 (centres unmarked) [Example 181, 4-(4-((1-(5-ethylpyrimidin-2-yl)piperidin-4-yl)methoxy)phenyl)-N,N-bis(2-hydroxyethyl)cyclohex-3-enecarboxamide]
90 |  | CCc1cnc(N2CCC(COc3ccc(C4=CCC(C(=O)N[C@H](C)CO)CC4)cc3)CC2)nc1 (stereo partly drawn) [Example 8, 4-(4-((1-(5-ethylpyrimidin-2-yl)piperidin-4-yl)methoxy)phenyl)-N-((R)-1-hydroxypropan-2-yl)cyclohex-3-enecarboxamide]
68 |  | CC(C)c1noc(N2CCC(COc3ccc(C4=CCC(C(=O)NCCC(=O)N5CCOCC5)CC4)cc3F)CC2)n1 (centres unmarked) [Example 113, 4-(3-fluoro-4-((1-(3-isopropyl-1,2,4-oxadiazol-5-yl)piperidin-4-yl)methoxy)phenyl)-N-(3-morpholino-3-oxopropyl)cyclohex-3-enecarboxamide]
